Data published in patent US9328078B2, “Benzofurazan anti-amyloid compounds and methods” (Treventis Corporation, priority 2012, dated 2016).
Values joined by “and” are separate entries in the source; they are usually repeats but may differ in a detail not shown here. Equal entries are not always repeated.

Target: Aβ40 (Homo sapiens, UniProt P05067)
Assay: kinetic ThT assay for Aβ aggregation
Type: biochemical
Conditions: for inhibition at 10 µM: compound 10 μM, read-out: % inhib Aβ 40 10 μM; for inhibition at 5 µM: 80 h, read-out: % inhib Aβ 40 (5 μm); for inhibition at 20 µM: read-out: % inhib. A β 40 (20 μM); for IC50: ThT fluorescence, 20 μM Aβ, 37° C., up to 80 hr, parenthesis = compound 1027 in same experiment, read-out: IC50 A β 1-40
Protocol: Aβ40 (1.0 mg) was pre-treated in a 1.5 mL microfuge tube with HFIP (1 mL) and sonicated for 20 min to disassemble any pre-formed Aβ aggregates. The HFIP was removed with a stream of argon and the Aβ dissolved in Tris base (5.8 mL, 20 mM, pH˜10). The pH was adjusted to 7.4 with concentrated HCl (˜10 μL) and the solution filtered using a syringe filter (0.2 μm) before being used.
The kinetic ThT assay for AP aggregation is similar to that of Chalifour et al (Chalifour et al, 2003, J. Biol. Chem. 278:34874-81). Briefly, pre-treated Aβ40 or Aβ42 (40 μM in 20 mM Tris, pH 7.4) was diluted with an equal volume of 8 μM Thioflavin T (ThT) in Tris (20 mM, pH 7.4, 300 mM NaCl). Aliquots of Aβ/ThT (200 μL) were added to wells of a black polystyrene 96-well plate, followed by 2 μL of a compound in DMSO (variable concentration), or DMSO alone (controls). Incubations were performed in triplicate and were taken to contain 20 μM Aβ, various concentration of compound in 20 mM Tris, pH 7.4, 150 mM NaCl, 1% DMSO. Plates were covered with clear polystyrene lids and incubated at 37° C. in a Tecan Genios microplate reader.
Fluorescence readings (λex=450 nm, λem=480 nm) were taken every 15 min., after first shaking at high intensity for 15 s and allowing to settle for 10 s before each reading. Active compounds attenuated the increase in fluorescence over time that occurred in controls. In FIGS. 1-7, the time this procedure was performed extended to 80 hours (rightmost part of X-axis), at which point fluorescence increase generally reached an asymptote. Applying a definition of DMSO control at 80 hr as 100% aggregation (0% inhibition) and DMSO control at 0 hr as 0% aggregation (100% inhibition), a % inhibition score where higher is better can be calculated for a given concentration of compound. By repeating this procedure over several concentrations, a […] (IC50) can be measured, as is given in the table below for some compounds.
Data is summarized in the table below; numbers given in parenthesis are the values in that particular experiment for compound ID 1027, given as the first entry in this table for comparison.

[1] = DMSO control at 80 hr = 0% inhibition, parenthesis = compound 1027
[2] = compound 5 μm, DMSO control at 80 hr = 0% inhibition, parenthesis = compound 1027
[3] = compound 20 μM, DMSO control at 80 hr = 0% inhibition, parenthesis = compound 1027

Sequence of Aβ40 (P05067 672-711 limits assumed, species assumed): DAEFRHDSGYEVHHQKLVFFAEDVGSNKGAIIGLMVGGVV

inhibition at 10 µM [1] | inhibition at 5 µM [2] | inhibition at 20 µM [3] | Compound | also measured
58.9% |  |  | OC(c1cccc(-c2cc(N3CCOCC3)c3nonc3c2)c1)C(F)(F)F (stereo not drawn) [TRV-1360] | 
 | 51% | 75% | CN(Cc1ccc(F)cc1)c1cc(-c2cccc(C(O)C(F)(F)F)c2)cc2nonc12 (stereo not drawn) [TRV-1390] | 
81.5% |  |  | CC(O)c1cccc(-c2cc(N3CCCC3)c3nonc3c2)c1 (stereo not drawn) [TRV-1310] | 
41% |  |  | CC(O)/C=C/c1cc(N(C)Cc2ccc(F)cc2)c2nonc2c1 (stereo not drawn) [TRV-1427] | 
 | 54.9% |  | COCCN(C)c1cc(-c2cccc(C(O)C(F)(F)F)c2)cc2nonc12 (stereo not drawn) [TRV-1383] | 
61.4% |  |  | OC(c1cc(N2CCCC2)c2nonc2c1)C(F)(F)F (stereo not drawn) [TRV-1368] | 
 | 44% | 48% | OC(c1cc(N2Cc3ccccc3C2)c2nonc2c1)C(F)(F)F (stereo not drawn) [TRV-1420] | 
 | 53% | 69% | COc1ccc(CN(C)c2cc(-c3cccc(C(O)C(F)(F)F)c3)cc3nonc23)cc1 (stereo not drawn) [TRV-1414] | 
50% | 44% |  | CCOC1CN(c2cc(-c3cccc(C(O)C(F)(F)F)c3)cc3nonc23)C1 (stereo not drawn) [TRV-1437] | 
 |  |  | CN1CCN(c2cc(-c3cccc(C(O)C(F)(F)F)c3)cc3nonc23)CC1 (stereo not drawn) [TRV-1376] | IC50: 51700 nM
51% |  |  | OC(c1cccc(-c2cc(N3CCC3)c3nonc3c2)c1)C(F)(F)F (stereo not drawn) [TRV-1432] | 
 | 48% | 80% | CN(Cc1ccc(F)cc1)c1cc(/C=C/C(O)(C(F)(F)F)C(F)(F)F)cc2nonc12 [TRV-1400] | 
 | 39% | 58% | OC(c1cccc(-c2cc(N3Cc4ccccc4C3)c3nonc3c2)c1)C(F)(F)F (stereo not drawn) [TRV-1401] | 
64% | 47% |  | O=C(NC1CC1)c1cccc(-c2cc(N3CCC3)c3nonc3c2)c1 [TRV-1441] | 
 |  |  | OC(c1ccc(-c2cc(N3CCCC3)c3nonc3c2)cc1)C(F)(F)F (stereo not drawn) [TRV-1365] | IC50: 920 nM
 | 56% | 81% | COC1CCN(c2cc(-c3cccc(C(O)C(F)(F)F)c3)cc3nonc23)C1 (stereo not drawn) [TRV-1411] | 
50% | 29% |  | CN(Cc1ccc(F)cc1)c1cc(-c2cccc(C3(O)COC3)c2)cc2nonc12 [TRV-1446] | 
 | 48% | 55% | OC1(c2cc(N3Cc4ccccc4C3)c3nonc3c2)COC1 [TRV-1419] | 
88.9% |  |  | OC(c1cccc(-c2cc(N3CCCC3)c3nonc3c2)c1)C(F)(F)F (stereo not drawn) [TRV-1361] | 
 | 72.4% |  | CCN(C)c1cc(-c2cccc(C(O)C(F)(F)F)c2)cc2nonc12 (stereo not drawn) [TRV-1384] | 
 | 51% | 64% | CN(Cc1ccccn1)c1cc(-c2cccc(C(O)C(F)(F)F)c2)cc2nonc12 (stereo not drawn) [TRV-1412] | 
 | 46% | 76% | CN(c1cc(-c2cccc(C(O)C(F)(F)F)c2)cc2nonc12)C1CC1 (stereo not drawn) [TRV-1405] | 
43% | 29% |  | O=C(c1cccc(-c2cc(N3CCC3)c3nonc3c2)c1)N1CCOCC1 [TRV-1442] | 
 | 39% | 69% | C#CCN(C)c1cc(-c2cccc(C(O)C(F)(F)F)c2)cc2nonc12 (stereo not drawn) [TRV-1404] | 
 |  |  | OC(c1ccc(-c2cc(N3CCCC3)c3nonc3c2)s1)C(F)(F)F (stereo not drawn) [TRV-1364] | IC50: 1000 nM
 |  |  | CN(Cc1ccccc1)c1cc(-c2cccc(C(O)C(F)(F)F)c2)cc2nonc12 (stereo not drawn) [TRV-1378] | IC50: 2380 nM

inhibition at 10 µM [1] | inhibition at 5 µM [2] | inhibition at 20 µM [3] | Compound | also measured
 |  |  | CC(C)N(C)c1cc(-c2cccc(C(O)C(F)(F)F)c2)cc2nonc12 (stereo not drawn) [TRV-1377] | IC50: 1860 nM
62% | 43.8% |  | CN(C)CCCN(C)c1cc(-c2cccc(C(O)C(F)(F)F)c2)cc2nonc12 (stereo not drawn) [compound 1463] | 
67% | 48% |  | CC1(O)CN(c2cc(-c3cccc(C(O)C(F)(F)F)c3)cc3nonc23)C1 (stereo not drawn) [TRV-1436] | 
 | 34% | 55% | CC(=O)c1cc(N(C)Cc2ccc(F)cc2)c2nonc2c1 [TRV-1418] | 
 | 33% | 69% | O=C(c1ccccc1)N1CCN(c2ccc([N+](=O)[O-])c(Nc3ccccc3)c2)CC1 [compound 1027, reference compound] | IC50: 10.5 µM (3×) and 14.7 µM and 22.1 µM (3×); % inhib. A β 40 (20 μM) [3]: 52% and 53% and 51%; % inhib Aβ 40 (3 μm) (compound 3 μm, DMSO control at 80 hr = 0% inhibition, parenthesis = compound 1027): 26%; % inhib Aβ 40 (5 μm) [2]: 38% and 33% (3×)
 |  |  | OC(c1ccccc1-c1cc(N2CCCC2)c2nonc2c1)C(F)(F)F (stereo not drawn) [TRV-1366] | IC50: 3030 nM
 | 60% |  | CCN(CC)c1cc(-c2cccc(C(O)C(F)(F)F)c2)cc2nonc12 (stereo not drawn) [TRV-1382] | 
 | 53% | 61.3% | CN(Cc1cccnc1)c1cc(-c2cccc(C(O)C(F)(F)F)c2)cc2nonc12 (stereo not drawn) [TRV-1413] | 
 | 52% | 53% | COc1cc(CN(C)c2cc(-c3cccc(C(O)C(F)(F)F)c3)cc3nonc23)cc(OC)c1 (stereo not drawn) [TRV-1415] | 
41.4% |  |  | CC(=O)c1cccc(-c2cc(N3CCCC3)c3nonc3c2)c1 [TRV-1362] | 
 | 65.6% |  | OC(c1cccc(-c2cc(N3CCSCC3)c3nonc3c2)c1)C(F)(F)F (stereo not drawn) [TRV-1385] | 
 | 57.1% |  | OC(c1cccc(-c2cc(NCc3ccccc3)c3nonc3c2)c1)C(F)(F)F (stereo not drawn) [TRV-1380] | 
 | 50% | 69% | CN(Cc1ccc(F)cc1)c1cc(/C=C/CO)cc2nonc12 [TRV-1409] | 
78% |  |  | OCC1CN(c2cc(-c3cccc(C(O)C(F)(F)F)c3)cc3nonc23)C1 (stereo not drawn) [TRV-1428] | 
 | 51% | 81% | COC1CN(c2cc(-c3cccc(C(O)C(F)(F)F)c3)cc3nonc23)C1 (stereo not drawn) [TRV-1403] | 
 |  |  | CC1CCCN1c1cc(-c2cccc(C(O)C(F)(F)F)c2)cc2nonc12 (mixture of isomers) [TRV-1379] | IC50: 1650 nM
66.3% |  |  | CC(O)c1cccc(-c2cc(NCc3ccccc3)c3nonc3c2)c1 (stereo not drawn) [TRV-1259] | 
72.7% |  |  | CC(O)c1cccc(-c2cc(N(C)Cc3ccccc3)c3nonc3c2)c1 (stereo not drawn) [TRV-1358] | 
60% | 52% |  | O=C(c1cccc(-c2cc(N3CCC3)c3nonc3c2)c1)N1CCNCC1 [TRV-1440] | 
 | 52% | 75% | CN(Cc1ccc(F)cc1)c1cc(C(=O)C(F)(F)F)cc2nonc12 [TRV-1417] | 
 | 70.4% |  | OC(c1cccc(-c2cc(N3CCCCC3)c3nonc3c2)c1)C(F)(F)F (stereo not drawn) [TRV-1381] | 
 | 38% | 61% | CN(Cc1ccc(F)cc1)c1cc(C(O)C(F)(F)F)cc2nonc12 (stereo not drawn) [TRV-1397] | 
70% | 54% |  | CC(C)OC1CN(c2cc(-c3cccc(C(O)C(F)(F)F)c3)cc3nonc23)C1 (stereo not drawn) [TRV-1447] | 
 | 36% | 69% | CN(Cc1ccccc1)c1cc(C(O)C(F)(F)F)cc2nonc12 (stereo not drawn) [TRV-1392] | 
 | 53% | 83% | OC1CN(c2cc(-c3cccc(C(O)C(F)(F)F)c3)cc3nonc23)C1 (stereo not drawn) [TRV-1406] | 
75.2% |  |  | CC(O)c1cccc(-c2cc(N3CCC[C@H]3CO)c3nonc3c2)c1 (stereo partly drawn) [TRV-1359] | 
